Structures are written as SMILES. Where a name gives a salt, the structure may show the parent alone. Active and inactive are the calls of the source. A value given as a limit tells only on which side of the number the result lay.

Assay [1] addresses Genome polyprotein (dengue virus type 2, UniProt P29990). The assay is described as follows: flavivirus cap methylation enzyme inhibition – biochemical, confirmation dose response, primary screen (AID 588689). The class given is functional.
Assay [2] deals with T1, Hepatocyte nuclear factor 4-alpha (Homo sapiens, UniProt P41235).
T1 sequence (P41235 whole entry): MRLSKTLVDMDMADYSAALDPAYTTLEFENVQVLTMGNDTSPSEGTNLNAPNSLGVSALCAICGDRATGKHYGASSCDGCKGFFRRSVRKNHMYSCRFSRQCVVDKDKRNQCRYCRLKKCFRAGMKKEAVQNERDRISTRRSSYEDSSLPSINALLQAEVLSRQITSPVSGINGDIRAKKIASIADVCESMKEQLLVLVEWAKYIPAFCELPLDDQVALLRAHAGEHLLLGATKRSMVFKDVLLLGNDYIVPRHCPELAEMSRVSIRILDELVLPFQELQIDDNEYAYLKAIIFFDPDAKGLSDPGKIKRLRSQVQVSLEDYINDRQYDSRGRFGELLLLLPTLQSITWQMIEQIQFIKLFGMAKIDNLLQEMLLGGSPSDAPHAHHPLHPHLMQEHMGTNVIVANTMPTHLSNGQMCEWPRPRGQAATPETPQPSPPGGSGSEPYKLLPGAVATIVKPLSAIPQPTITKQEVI
It counts as functional, cell-based.

Assay [3] has as its target Melanocortin receptor 4 (Homo sapiens, UniProt P32245). It counts as functional, cell-based.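 Also: Cell-based assay with luminescence read-out, confirmatory dose-response testing for agonist activity of biased ligands at MC4R; human U2OS cells with tagged receptor and beta-arrestin; potency of agonists that increase receptor coupling to beta-arrestin.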
Assay [4] has as its target T2, Sentrin-specific protease 8 (Homo sapiens, UniProt Q96LD8).
T2 sequence (Q96LD8 whole entry): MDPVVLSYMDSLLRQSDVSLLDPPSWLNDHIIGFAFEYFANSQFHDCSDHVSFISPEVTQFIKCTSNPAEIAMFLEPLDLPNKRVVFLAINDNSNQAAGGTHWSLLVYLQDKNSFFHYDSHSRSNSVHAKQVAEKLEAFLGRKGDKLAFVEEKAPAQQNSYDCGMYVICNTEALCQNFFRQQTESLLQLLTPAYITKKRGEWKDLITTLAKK
The assay is described as follows: inhibition of human SENP8 cleavage activity – biochemical, luminescence, SAR follow-up (AID 504501). It counts as functional.

The target of assay [5] is T3, Caspase-3 (Homo sapiens, UniProt P42574).
T3 sequence (P42574 whole entry): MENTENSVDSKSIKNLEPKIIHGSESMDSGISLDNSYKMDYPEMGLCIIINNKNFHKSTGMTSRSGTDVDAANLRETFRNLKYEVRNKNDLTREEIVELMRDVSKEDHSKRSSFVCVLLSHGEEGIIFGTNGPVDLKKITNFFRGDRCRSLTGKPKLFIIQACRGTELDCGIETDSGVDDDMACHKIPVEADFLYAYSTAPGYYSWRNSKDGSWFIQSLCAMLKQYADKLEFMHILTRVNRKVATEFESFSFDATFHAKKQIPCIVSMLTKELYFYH
The assay is described as follows: SAR Analysis of small molecule inhibitors of Sentrin-specific proteases (SENPs) using a Caspase-3 Selectivity assay. [Related pubchem assays (depositor defined):AID2540, AID2599, AID434973, AID489001]. It counts as functional.

The target of assay [6] is T4, Sentrin-specific protease 6 (Homo sapiens, UniProt Q9GZR1).
T4 sequence (Q9GZR1 whole entry): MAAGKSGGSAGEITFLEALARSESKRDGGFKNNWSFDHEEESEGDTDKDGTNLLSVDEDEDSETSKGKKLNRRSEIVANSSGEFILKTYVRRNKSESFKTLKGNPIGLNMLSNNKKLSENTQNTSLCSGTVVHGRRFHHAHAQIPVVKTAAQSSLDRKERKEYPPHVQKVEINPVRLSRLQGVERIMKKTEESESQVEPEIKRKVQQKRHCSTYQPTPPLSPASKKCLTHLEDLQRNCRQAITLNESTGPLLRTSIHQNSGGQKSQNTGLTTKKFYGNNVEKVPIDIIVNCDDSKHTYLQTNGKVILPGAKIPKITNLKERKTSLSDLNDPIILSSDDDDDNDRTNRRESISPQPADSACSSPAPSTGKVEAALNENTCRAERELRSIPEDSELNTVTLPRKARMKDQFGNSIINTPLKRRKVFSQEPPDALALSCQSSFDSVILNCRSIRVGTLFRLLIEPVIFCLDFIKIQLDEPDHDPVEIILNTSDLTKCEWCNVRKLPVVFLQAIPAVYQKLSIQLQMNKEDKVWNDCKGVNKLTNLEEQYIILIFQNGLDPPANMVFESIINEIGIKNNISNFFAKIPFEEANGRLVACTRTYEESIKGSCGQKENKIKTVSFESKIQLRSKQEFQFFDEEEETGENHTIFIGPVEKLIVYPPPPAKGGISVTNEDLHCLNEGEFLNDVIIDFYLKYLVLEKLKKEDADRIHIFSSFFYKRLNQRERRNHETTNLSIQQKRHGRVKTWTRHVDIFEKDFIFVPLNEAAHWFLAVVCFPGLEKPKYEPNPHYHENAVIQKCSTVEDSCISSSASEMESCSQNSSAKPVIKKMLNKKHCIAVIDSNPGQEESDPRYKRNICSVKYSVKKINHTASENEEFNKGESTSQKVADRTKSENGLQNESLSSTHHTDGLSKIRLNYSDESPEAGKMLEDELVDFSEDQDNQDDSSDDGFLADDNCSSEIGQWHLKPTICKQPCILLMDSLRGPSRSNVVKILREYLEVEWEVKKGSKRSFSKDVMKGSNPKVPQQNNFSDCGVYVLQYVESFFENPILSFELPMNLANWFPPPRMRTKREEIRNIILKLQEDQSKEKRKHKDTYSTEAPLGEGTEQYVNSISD
The assay is described as follows: SAR Analysis of small molecule inhibitors of Sentrin-specific protease 6 (SENP6) using a Luminescent assay. [Related pubchem assays (depositor defined):AID2582, AID2599]. The class given is functional.

The target of assay [7] is T5, Sentrin-specific protease 7 (Homo sapiens, UniProt Q9BQF6).
T5 sequence (Q9BQF6 whole entry): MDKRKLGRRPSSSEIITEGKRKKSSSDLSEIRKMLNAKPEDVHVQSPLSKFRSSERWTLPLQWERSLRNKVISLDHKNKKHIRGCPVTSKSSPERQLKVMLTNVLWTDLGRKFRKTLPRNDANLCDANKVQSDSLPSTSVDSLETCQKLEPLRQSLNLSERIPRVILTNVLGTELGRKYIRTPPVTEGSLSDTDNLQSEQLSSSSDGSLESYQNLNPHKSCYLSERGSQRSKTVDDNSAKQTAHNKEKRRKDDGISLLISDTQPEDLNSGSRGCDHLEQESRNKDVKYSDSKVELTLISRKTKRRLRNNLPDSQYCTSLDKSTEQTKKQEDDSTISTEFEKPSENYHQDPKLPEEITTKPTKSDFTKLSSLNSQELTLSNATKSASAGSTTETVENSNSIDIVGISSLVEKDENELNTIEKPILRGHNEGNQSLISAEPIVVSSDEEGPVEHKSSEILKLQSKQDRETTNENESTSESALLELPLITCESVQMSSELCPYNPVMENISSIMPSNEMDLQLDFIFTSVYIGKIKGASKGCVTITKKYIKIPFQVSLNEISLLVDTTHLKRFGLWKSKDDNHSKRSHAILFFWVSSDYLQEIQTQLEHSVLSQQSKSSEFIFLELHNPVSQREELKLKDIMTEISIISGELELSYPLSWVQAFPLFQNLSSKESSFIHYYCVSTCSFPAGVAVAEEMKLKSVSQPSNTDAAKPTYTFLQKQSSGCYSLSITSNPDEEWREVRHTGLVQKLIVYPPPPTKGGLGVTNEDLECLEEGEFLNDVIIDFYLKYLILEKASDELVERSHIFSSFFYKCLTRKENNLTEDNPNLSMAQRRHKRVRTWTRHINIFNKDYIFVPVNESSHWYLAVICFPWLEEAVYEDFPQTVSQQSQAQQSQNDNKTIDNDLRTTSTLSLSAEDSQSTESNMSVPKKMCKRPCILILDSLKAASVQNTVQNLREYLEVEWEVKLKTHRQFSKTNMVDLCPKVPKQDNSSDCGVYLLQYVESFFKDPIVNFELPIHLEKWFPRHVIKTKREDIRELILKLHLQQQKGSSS
The experiment in a line: inhibition of human SENP7 cleavage activity – biochemical, luminescence, SAR follow-up (AID 504497). It counts as functional.

Assay [8] concerns the target T6, Cysteine protease ATG4B (Homo sapiens, UniProt Q9Y4P1).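 Also: Fluorescence-based dose-response confirmation assay measuring inhibition of ATG4B activity.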
T6 sequence (Q9Y4P1 whole entry): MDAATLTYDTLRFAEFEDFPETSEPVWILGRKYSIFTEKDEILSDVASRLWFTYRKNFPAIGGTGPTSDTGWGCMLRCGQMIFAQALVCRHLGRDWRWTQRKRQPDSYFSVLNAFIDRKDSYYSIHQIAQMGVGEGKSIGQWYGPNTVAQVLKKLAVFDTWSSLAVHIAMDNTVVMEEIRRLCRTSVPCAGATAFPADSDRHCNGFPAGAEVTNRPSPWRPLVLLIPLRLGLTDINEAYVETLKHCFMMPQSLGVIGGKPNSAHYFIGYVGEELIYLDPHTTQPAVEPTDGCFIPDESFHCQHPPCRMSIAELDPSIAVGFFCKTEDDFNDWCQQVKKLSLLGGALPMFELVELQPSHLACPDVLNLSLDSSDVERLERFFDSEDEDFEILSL
It counts as functional.

For assay [9], the target named is Phospholipase A2 (Homo sapiens, UniProt P04054). The class given is functional.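 Also: confirmatory dose-response counterscreen on phospholipase A2, testing hits that came from an ultra-high-throughput screen for ATG4B inhibitors.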
Assay [10] is described as follows: Trypanosoma cruzi growth suppression in host cells – NIH3T3 host cells, beta-gal luminescence, confirmation (AID 2044).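 Also: intracellular parasites grown in NIH/3T3 mouse fibroblasts as host cells; luminescent beta-galactosidase reporter signal from transgenic T. cruzi replicating inside host cells; inhibitors lower the luminescence signal.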 The class given is functional, cell-based.
Assay [11] is described as follows: NIH3T3 cell viability loss – ATP luminescence, mouse fibroblasts, counter-screen, dose response (AID 2010).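 Also: cells exposed to compound for about 90 hours before reading.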 The class given is functional, cell-based. A general note: A counterscreen serves to expose hits that act by an unwanted route or on another target.
In assay [12] the test system is Streptococcus sp. 'group A'. The assay is described as follows: Streptococcus pyogenes SK(-)GAS viability under kanamycin – luminescence, BacTiterGlo, confirmation, counter-screen for streptokinase expression inhibitor project, dose response (AID 1900). The class given is functional, organism-based.
Assay [13] has as its target T7, Streptokinase A (Streptococcus pyogenes serotype M1, UniProt P10520).
T7 sequence (P10520 whole entry): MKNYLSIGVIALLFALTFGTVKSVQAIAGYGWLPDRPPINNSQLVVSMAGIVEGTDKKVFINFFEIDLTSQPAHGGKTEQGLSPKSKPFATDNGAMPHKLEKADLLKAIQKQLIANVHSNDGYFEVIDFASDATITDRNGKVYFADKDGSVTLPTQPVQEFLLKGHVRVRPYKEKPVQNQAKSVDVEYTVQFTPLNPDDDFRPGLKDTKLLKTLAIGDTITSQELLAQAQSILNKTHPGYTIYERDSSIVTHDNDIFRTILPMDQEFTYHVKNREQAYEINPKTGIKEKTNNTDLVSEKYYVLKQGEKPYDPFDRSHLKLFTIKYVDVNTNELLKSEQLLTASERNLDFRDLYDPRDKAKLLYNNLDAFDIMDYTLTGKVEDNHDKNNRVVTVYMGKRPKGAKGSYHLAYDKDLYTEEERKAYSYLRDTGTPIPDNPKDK
The assay is described as follows: viability-normalized secreted streptokinase activity reduction – plasminogen activation absorbance, OD405, dose response (AID 1914).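 Also: secreted streptokinase activity via plasminogen activation per viability signal from cell pellet.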 The class given is functional, Streptococcus pyogenes M1 GAS.

For assay [14], the system named is Streptococcus. The experiment in a line: GAS UMAA2166 growth inhibition – luminescence, BacTiterGlo, counter-screen for streptokinase expression inhibitor project, dose response (AID 1915).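 Also: potency for reduction of bacterial viability or growth.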 It counts as functional, organism-based.

Chain of Melanocortin receptor 4 (P32245 whole entry): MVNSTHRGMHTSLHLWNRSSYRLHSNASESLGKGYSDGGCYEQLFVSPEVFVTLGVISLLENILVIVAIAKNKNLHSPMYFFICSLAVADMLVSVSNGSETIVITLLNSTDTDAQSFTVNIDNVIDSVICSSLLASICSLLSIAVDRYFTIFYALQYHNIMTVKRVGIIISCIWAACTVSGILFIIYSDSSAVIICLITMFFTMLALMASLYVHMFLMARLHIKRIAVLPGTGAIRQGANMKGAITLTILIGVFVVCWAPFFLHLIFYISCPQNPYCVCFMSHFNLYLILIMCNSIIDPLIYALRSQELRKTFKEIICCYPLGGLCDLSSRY
Chain of Phospholipase A2 (P04054 whole entry): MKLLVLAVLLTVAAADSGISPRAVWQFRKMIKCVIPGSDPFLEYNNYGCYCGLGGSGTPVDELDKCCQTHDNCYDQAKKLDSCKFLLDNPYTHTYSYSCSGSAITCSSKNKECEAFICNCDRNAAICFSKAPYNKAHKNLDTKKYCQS
Chain of Genome polyprotein (P29990 2492-3391 limits assumed): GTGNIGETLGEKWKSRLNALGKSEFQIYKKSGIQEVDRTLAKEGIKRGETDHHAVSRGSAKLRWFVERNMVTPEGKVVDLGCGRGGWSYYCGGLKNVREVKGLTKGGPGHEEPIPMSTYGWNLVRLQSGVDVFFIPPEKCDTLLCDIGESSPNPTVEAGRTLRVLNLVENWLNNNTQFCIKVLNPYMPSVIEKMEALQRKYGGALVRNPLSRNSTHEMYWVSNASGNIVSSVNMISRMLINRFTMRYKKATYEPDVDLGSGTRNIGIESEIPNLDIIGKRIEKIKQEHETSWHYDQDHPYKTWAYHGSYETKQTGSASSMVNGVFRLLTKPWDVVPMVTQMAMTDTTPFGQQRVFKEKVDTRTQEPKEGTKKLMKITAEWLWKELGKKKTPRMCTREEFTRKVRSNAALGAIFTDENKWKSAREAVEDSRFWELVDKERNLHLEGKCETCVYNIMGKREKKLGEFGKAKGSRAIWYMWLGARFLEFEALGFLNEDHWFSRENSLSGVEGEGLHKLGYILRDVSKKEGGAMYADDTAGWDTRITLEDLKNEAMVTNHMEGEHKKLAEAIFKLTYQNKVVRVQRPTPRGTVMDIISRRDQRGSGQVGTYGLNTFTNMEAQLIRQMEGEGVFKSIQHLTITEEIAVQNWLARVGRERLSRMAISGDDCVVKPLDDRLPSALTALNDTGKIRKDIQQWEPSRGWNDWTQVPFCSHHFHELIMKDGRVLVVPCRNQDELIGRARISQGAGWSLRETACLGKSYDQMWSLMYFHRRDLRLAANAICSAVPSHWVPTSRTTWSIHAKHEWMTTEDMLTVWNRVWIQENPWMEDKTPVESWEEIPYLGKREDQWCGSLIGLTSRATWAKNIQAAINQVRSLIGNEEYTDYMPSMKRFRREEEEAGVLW

One may read the IC50 as the concentration that gives 50% inhibition. In the case of `O=C1NC(=O)N(c2ccccc2F)C(=O)/C1=C/c1ccc(Oc2ccc([N+](=O)[O-])cn2)cc1`, the IC50 is 56.1 µM (active) in assay [1] and 1.88 µM (active) in assay [2].

What is called EC50 is the concentration needed to bring the measured effect to its halfway point. Regarding `Cc1cccnc1C(NC(=O)C1CCN(CCOc2ccc(Cl)cc2Cl)CC1)c1ccc(Cl)cc1` (centres undefined), the EC50 in assay [3] is > 89.2 µM (inactive).

Consider `O=C(NC1CCCCC1)C(c1ccccc1F)n1c(=O)c(-c2ccco2)nc2ccccc21` (centres undefined), for which the IC50 in assay [2] is 1.84 µM (active).

Consider `Cc1ccc(NC(=O)c2ncn(CCCN3CCN(Cc4cccc5ccccc45)CC3)n2)cc1C`, for which the EC50 in assay [3] is > 89.2 µM (inactive).

As to `Cc1ccc2nc(NC(=O)c3cc(=O)c4cc(C)c(C)cc4o3)sc2c1`, the IC50 in assay [4], in assay [5], in assay [6] and in assay [7] was > 99 µM (inactive) throughout.

As to `CC(C)c1ccc(NC2CCCN(C(=O)c3cnn(C(C)C)c3)C2)cc1` (centres undefined), the IC50 is 9.04 µM (active) in assay [8] and 6.21 µM (active) in assay [9].

On to `Nc1ccc(-c2noc(/C=C/c3ccccc3)n2)cc1[N+](=O)[O-]`, for which the IC50 in assay [4], in assay [5], in [6] and in [7] was > 99 µM (inactive) each time.

As for `O=S(=O)(c1ccc(F)cc1)c1nc(-c2ccccc2F)oc1N1CCCCC1`, the EC50 was 1.87 µM (active) in assay [10] and > 30 µM (not active) in assay [11]. Further, the IC50 was 19.1 µM (active) in assay [8] and 12.3 µM (active) in assay [9].

`Fc1cc(F)cc(-c2noc(/C=C/c3ccccc3Cl)n2)c1`: the IC50 in assay [4], in assay [5], in assay [6] and in assay [7] was > 99 µM (inactive) throughout.

As to `NC(Cc1ccc(C(F)(F)F)cc1)c1csc(Nc2nccc(C(F)(F)F)n2)n1` (centres undefined), the EC50 in [3] is > 89.2 µM (inactive).

In the case of `CC(C)CC(=O)Nc1ccc(-c2nc3cc(Cl)ccc3s2)cc1`, the IC50 in assay [4] was > 99 µM (inactive); in assay [5] it was > 99 µM (inactive); in assay [6], > 99 µM (inactive); in assay [7] it was 82.7 µM (active).

For `CN(C)CCOc1ccc(/C(=C(/CCCl)c2ccccc2)c2ccccc2)cc1` [TOREMIFENE CITRATE], the EC50 in assay [12] is 5.82 µM (active); in assay [13], 25.9 µM (active); in [10], 28.4 µM (active); in [11], > 60 µM (not active); in [14], 8.17 µM (active). In assay [2], the IC50 was 7.87 µM (active).

For the origin of these results see ChEMBL document CHEMBL1201862, “PubChem BioAssay data set” (2004).
